According to ChEMBL document CHEMBL1142512, “Synthesis, in vitro, and in silico evaluation of organometallic technetium and rhenium thymidine complexes with retained substrate activity toward human thymidine kinase type 1” (J Med Chem, 2008):

Key:
[1] = target: T1, Thymidine kinase, cytosolic (Homo sapiens) (UniProt P04183); assay: Inhibition of human recombinant TK1 phosphorylation after 15 mins by pyruvate kinase/lactate dehydrogenase coupled assay relative to thymidine
T1 sequence (whole entry): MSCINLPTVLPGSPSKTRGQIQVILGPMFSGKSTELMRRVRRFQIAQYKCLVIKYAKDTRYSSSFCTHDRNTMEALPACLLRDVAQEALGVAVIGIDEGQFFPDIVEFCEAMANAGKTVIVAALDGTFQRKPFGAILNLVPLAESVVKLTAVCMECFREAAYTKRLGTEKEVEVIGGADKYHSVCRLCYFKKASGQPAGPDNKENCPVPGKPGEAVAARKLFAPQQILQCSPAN

SK-N-MC = assay: Drug uptake in human SK-N-MC cells at 111 kBq after 2 hrs by […]; type: ADME, cell-based

| inhibition [1] | Structure (SMILES) | Drug uptake (SK-N-MC) |
| --- | --- | --- |
| 86.7% | C#CCn1c(=O)c(C)cn([C@H]2C[C@H](O)[C@@H](CO)O2)c1=O | – |
| – | [3H]C([3H])([3H])c1cn([C@H]2C[C@H](O)[C@@H](CO)O2)c(=O)[nH]c1=O | 29 %ID/mg/ml |
